The source of these data is patent US9278093B2, “Aldosterone synthase inhibitors” (Merck Sharp & Dohme Corp., priority 2012, dated 2016).

One assay concerns the target human CYP11B2 (Homo sapiens (Human), UniProt P19099). In words: V79-Human-CYP11B2 Assay. The following applies: V79MZh11B2 cells, substrate deoxycorticosterone 100 nM, 50 min incubation. Format: cell-based. On the procedure: (§1) V79MZh11B1 and V79MZh11B2 cells (8×10^5 cells/well) were grown on 24-well culture plates until confluence. Before testing, the DMEM culture medium was removed and 450 μl of fresh DMEM containing the inhibitor was added to each well. After a preincubation step of 60 min at 37° C., the reaction was started by the addition of 50 μl of DMEM in which the substrate deoxycorticosterone (containing 0.15 μCi of [1,2-3H]-deoxycorticosterone in ethanol, final test concentration 100 nM) was dissolved. Incubation times were 25 min for V79MZh11B1 and 50 min for V79MZh11B2 cells at 37° C., respectively. The enzyme reactions were stopped by extracting the supernatant with ethyl acetate. Samples were centrifuged (10.000 g, 5 min) and the solvent was pipetted into fresh cups. After evaporation of the solvent, the steroids were redissolved in 40 μl of […] and analyzed by HPLC. Detection and quantification of the steroids were performed using a radioflow detector. To first estimate the different IC50 values, five different concentrations ranging from 1 to 10.000 nM were measured. For the following IC50 determination, three different concentrations (repeat-determinations) were measured for each […] value of each inhibitor in which the second concentration led to an inhibition of approximately 40 to 60%. […] The final IC50 value was estimated as the average of three or four independent IC50 values and a selectivity factor corresponding to the ratio between the […] values of CYP11B1 and CYP11B2 was calculated for each substance.

In another assay the target is human CYP11B1 (Homo sapiens (Human), UniProt P15538). Kind of assay: V79-Human-CYP11B1 Assay. Format: cell-based. The following applies: V79MZh11B1 cells, substrate deoxycorticosterone 100 nM, 25 min incubation. On the procedure:
as §1

human CYP11B2, sequence (P19099 25-503): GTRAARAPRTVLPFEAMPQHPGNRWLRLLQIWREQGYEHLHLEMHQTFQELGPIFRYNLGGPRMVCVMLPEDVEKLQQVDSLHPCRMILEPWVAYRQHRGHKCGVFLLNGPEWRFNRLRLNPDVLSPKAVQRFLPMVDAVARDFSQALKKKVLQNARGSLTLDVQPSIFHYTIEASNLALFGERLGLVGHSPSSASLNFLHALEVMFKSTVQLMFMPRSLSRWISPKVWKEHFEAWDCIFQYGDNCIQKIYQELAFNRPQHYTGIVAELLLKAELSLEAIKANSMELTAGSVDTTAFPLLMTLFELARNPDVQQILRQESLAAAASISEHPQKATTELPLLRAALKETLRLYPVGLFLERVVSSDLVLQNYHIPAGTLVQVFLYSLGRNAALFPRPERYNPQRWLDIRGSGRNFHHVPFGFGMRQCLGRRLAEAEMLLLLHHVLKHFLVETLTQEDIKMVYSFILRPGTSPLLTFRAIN
human CYP11B1, sequence (P15538 25-503): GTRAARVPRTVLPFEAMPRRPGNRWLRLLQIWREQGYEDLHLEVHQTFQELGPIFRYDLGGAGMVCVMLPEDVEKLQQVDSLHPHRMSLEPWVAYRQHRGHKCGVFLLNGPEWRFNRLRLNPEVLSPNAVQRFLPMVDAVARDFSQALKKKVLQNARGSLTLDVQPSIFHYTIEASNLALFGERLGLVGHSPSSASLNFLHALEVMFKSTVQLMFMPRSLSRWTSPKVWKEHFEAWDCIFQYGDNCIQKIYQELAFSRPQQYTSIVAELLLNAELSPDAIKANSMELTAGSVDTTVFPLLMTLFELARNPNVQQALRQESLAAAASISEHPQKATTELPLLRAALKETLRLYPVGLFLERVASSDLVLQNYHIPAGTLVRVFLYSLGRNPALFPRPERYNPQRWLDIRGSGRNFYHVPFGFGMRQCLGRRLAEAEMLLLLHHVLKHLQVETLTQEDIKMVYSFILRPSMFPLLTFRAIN

One may read the IC50 as the concentration needed to halve the response being measured. As to `Cc1nnc2n1-c1c(F)cc(-c3cncc(F)c3C3CC3)cc1CC2` [Example 1, 7-(4-cyclopropyl-5-fluoropyridin-3-yl)-9-fluoro-1-methyl-4,5-dihydro-[1,2,4]triazolo[4,3-a]quinoline], the 50% inhibitory concentration (IC50) on human CYP11B2 came to 0.0073 µM; on human CYP11B1, 2.29 µM.
With `Cc1c(F)cncc1-c1cc(F)c2c(c1)CCc1nnc(C)n1-2` [Example 2, 9-fluoro-7-(5-fluoro-4-methylpyridin-3-yl)-1-methyl-4,5-dihydro-[1,2,4]triazolo[4,3-a]quinoline], the IC50 against human CYP11B2 came to 0.006 µM; against human CYP11B1, 1.42 µM.
For `Cc1nnc2n1-c1c(F)cc(-c3cncc(F)c3C(C)C)cc1CC2` [Example 3, 9-fluoro-7-(5-fluoro-4-isopropylpyridin-3-yl)-1-methyl-4,5-dihydro-[1,2,4]triazolo[4,3-a]quinoline], the IC50 against human CYP11B2 was 0.0095 µM; against human CYP11B1, 3.97 µM.
In the case of `Cc1nnc2n1-c1c(F)cc(-c3cncc(F)c3Cl)cc1CC2` [Example 4, 7-(4-chloro-5-fluoropyridin-3-yl)-9-fluoro-1-methyl-4,5-dihydro-[1,2,4]triazolo[4,3-a]quinoline], the values for the IC50 against human CYP11B2 and on human CYP11B1 were 0.0216 µM and 9.8 µM, respectively.
